Test results published in PMC9506044, “Identification of Protosappanoside D from Caesalpinia decapetala and Evaluation of Its Pharmacokinetic, Metabolism and Pharmacological Activity” (Molecules, 2022).
Entries after “also recorded” stand apart in the source; their conditions may differ. Read-outs that look alike come from different tables or passages of the source.

How the values were obtained:
[1] = Metabolites identification in rat plasma (UHPLC/Q Exactive Plus MS); type: in vivo, Sprague-Dawley rats; details: PTD 27.3 mg/kg by gavage twice daily for 3 d, 2 h after last administration
Description: To investigate the PTD metabolites, Sprague-Dawley rats were randomly divided into two groups with six rats in each group. PTD was continuously administered by gavage twice daily for 3 d at a dose of 27.3 mg/kg. Blood was collected from the rat femoral artery 2 h after the last administration, centrifuged at 6000 rpm at 4 °C for 6 min, and 100 μL of plasma was separated and frozen at −20 °C until analysis.
Qualitative analysis of metabolites was conducted on a Vanquish horizon (Thermo Scientific, Waltham, MA, USA) and combined with a Q Exactive Plus Orbitrap MS (QE Plus, Thermo Scientific, USA) system. The separation of PTD and its metabolites was achieved on a Hypersil gold column (2.1 × 150 mm, i.d., 1.9 μm). The mobile phase consisted of water containing 0.1% formic acid (B) and acetonitrile containing 0.1% formic acid (A). The gradient elution program was set as follows: 0–2 min, 5% A; 2–3 min, 5~25% A; 3–6 min, 25~40% A; 6–13 min, 40~95% A; 13–14 min, 95~95% A; 14–15 min, 95~5% A; 15–18 min, 5~5% A; flow rate, 0.3 mL/min. The MS unit parameters were set as follows: the range of data acquisition was 150–1000 m/z, electrospray voltage was 2.5 kV(−), 3.5 kV(+), solvent removal gas flow rate was 8 L/min, and desolvent gas temperature was 320 °C. Acquisition and processing were conducted using the Xcalibur 4.2 software (Thermo Fisher Scientific, USA) and Compound Discoverer 3.2 (Thermo, USA).
A 600 μL aliquot of each plasma sample was transferred into a 5 mL centrifuge tube, 300 μL of 2% formic acid solution and 2.4 mL of methanol was added before vortexing for 2 min. This was followed by sonication in an ultrasonic machine for 10 min, and centrifugation at 13,225× g for 10 min. The supernatant was then placed in a centrifuge tube and evaporated to dryness under a stream of nitrogen at 37 °C. The residues were dissolved in 200 μL of 50% methanol and centrifuged at 13,225× g for 10 min, and 1 μL of the solution was injected into the QE system.

RAW264.7 cells = assay: MTS cell viability assay on RAW264.7 cells; type: cell-based; details: 24 h treatment
Description: (§1) RAW264.7 cells, obtained from American Type Culture Collection (ATCC, Manassas, VA, USA), were cultured in Dulbecco’s modified Eagle’s medium (DMEM) (Life Technologies, Grand Island, NY, USA) supplemented with 10% fetal bovine serum (FBS) and 1% penicillin-streptomycin (Grand Island, NY, USA). The cultures were incubated at 37 °C in a humidified atmosphere containing 5% CO2.
Cell viability was determined using the MTS cell viability assay kit. RAW264.7 cells were cultured at a density of 1 × 10^5 cells per well in 96-well plates by the treatment with various concentrations of PTD and PTB, respectively. After 24 h, 5 µL MTS was added to each well and incubated for 3 h. The plates were then read at 490 nm using a microplate reader.

[2] = test system: LPS-stimulated RAW264.7 cells; assay: Secretion of TNF-α, IL-1β and IL-6 by LPS-induced RAW264.7 cells (ELISA); type: cell-based; details: 200 μmol/L, LPS 1 μg/mL, 24 h, compared to the model group
Description: as §1
RAW264.7 cells (1 × 10^5 cells/well in a 96-well plate) were treated with PTD, PTB (200 μmol/L) and stimulated by LPS (1 μg/mL) for 24 h. As a positive control, the impacts of Dex on LPS-induced RAW264.7 cells were also determined parallelly. The supernatants were then collected, and the accumulated NO level was determined using Griess reagent. The concentrations of TNF-α, IL-6 and IL-1β in conditioned media were measured using enzyme-linked immunosorbent assay (ELISA) according to the supplier’s instructions.

[3] = Pharmacokinetic study in rats after oral and intravenous administration of PTD (UPLC-MS/MS, plasma); type: in vivo; details: Sprague-Dawley; for AUC(0-inf) / AUC(0-t) / Cmax / MRT last / MRT inf / half-life / Tmax: rat plasma; for MRT last: read-out: MRT(0–t); for MRT inf: read-out: MRT(0–∞); for half-life: read-out: t1/2z (converted)
Description: Specific pathogen-free Sprague-Dawley rats (230 ± 10 g) were purchased from Changsha Tianqin Biotechnology Co., Ltd. (Changsha, China; certificate no. SCXK (Xiang) 2014-0010). Before starting the experiments, the rats were allowed one week of acclimatization in the animal quarters under air conditioning (25 ± 1 °C) and an automatically controlled photoperiod of 12 h of light daily. They were fed with standard rodent chow and tap water ad libitum. Rats were fasted for 12 h before the start of the experiment but were free to drink water. All experiments were approved by the Animal Ethics Committee of Guizhou Medical University and conducted in accordance with the guidelines of the Committee on the Care and Use of Laboratory Animals in China.
For the pharmacokinetic study, 12 rats were randomly divided into two groups, with 6 rats in each group. In the oral administration group, PTD was intragastrically administered to the rats at a dose of 27.3 mg/kg. For intravenous administration, PTD was injected at a dose of 9.1 mg/kg via the tail vein. Blood samples (0.3 mL) were collected directly from the caudal vein using anticoagulant centrifugal tubes at 0.083, 0.167, 0.33, 0.5, 0.75, 1, 1.5, 2, 4, 6, 9, 12 and 24 h after intravenous and oral administration, respectively. The blood sample was centrifuged at 6000 rpm for 6 min, and the supernatant plasma was transferred into a new clean tube and stored at −80 °C prior to further use.
The UPLC-MS/MS system consisted of an ACQUITY I-Class UPLC system and an XEVO TQ-S triple-quadrupole tandem mass spectrometer (Waters Corp., Milford, MA, USA) equipped with an ESI source. Chromatographic separation was performed using a UPLC BEN C18 column (2.1 × 50 mm, […]; Waters Corp., Milford, MA, USA) at 40 °C. The mobile phase consisted of water containing 0.2% formic acid (B) and acetonitrile containing 0.2% formic acid (A) delivered at 0.3 mL/min as a gradient as follows: 0–0.5 min, 10% A; 0.5–3 min, 90% A; 3–4 min, 90% A; 4–4.5 min, 10% A; 4.5–5 min, 10% A. Waters XEVO TQ-S triple-quadrupole mass spectrometer equipped with an ESI source was used for the mass analysis and detection. The main working parameters were set as follows: source temperature, 120 °C; desolvation temperature, 350 °C; and nebuliser gas (N2), 650 L/h. The scan time for all analytes was set at 0.2 s and acquisition and processing were conducted on a Micromass Masslynx4.1.
A 100 μL aliquot of each plasma sample was transferred into a 1.5 mL centrifuge tube, and 50 μL of 2% formic acid solution was added before vortexing for 30 s. Subsequently, the internal standard (IS) (50 μL of 20 ng/mL puerarin) and 400 μL of methanol were added and vortexed for 1 min. For subsequent treatment methods were the same as mentioned in the above section (4.7.1); finally, 1 μL of the solution was injected into the UPLC-MS/MS system.
Compound discoverer 3.2 was used for the analysis of metabolites of PTD; WinNonlin was used for the analysis of pharmacokinetic parameters, and Graphpad 8.2 was used for the illustrations. Data are expressed as mean ± SD. Statistical analysis was performed using the Statistical Product and Service Solutions software package (SPSS 22.0, SPSS Inc., Chicago, IL, USA). The results were analyzed using one-way ANOVA and bioavailability (F) was calculated according to the equation reported in He et al..

[4] = Stability of the analytes in rat plasma under various storage conditions; type: in vitro ADME
Description: The stability of analytes in rat plasma was assessed using QC samples at low, medium and high concentrations (n = 5 for each concentration level) under three conditions: (1) at room temperature for 24 h; (2) refrigerated at 4 °C for 24 h; and (3) three freeze-thaw cycles.

[5] = po, intragastric administration of PTD 27.3 mg/kg
[6] = rat, plasma, po, 27.3 mg/kg, intragastric administration of PTD 27.3 mg/kg
[7] = intravenous administration of PTD 9.1 mg/kg

Row | Compound | Identification (metabolic pathway from PTD) [1] | concentration with no cytotoxicity to RAW264.7 cells (RAW264.7 cells) | secretion of IL-1β [2] | secretion of IL-6 [2] | secretion of TNF-α [2] | AUC(0-inf) [3, 5] [ng·h/mL] | AUC(0-t) [3, 5] [ng·h/mL] | Cmax [3, 5] [ng/mL] | MRT last [3, 5] [h] | MRT inf [3, 5] [h] | half-life [3, 5] [h] | Tmax [3, 6] [h] | AUC(0-inf) [3, 7] [ng·h/mL] | AUC(0-t) [3, 7] [ng·h/mL] | MRT last [3, 7] [h] | MRT inf [3, 7] [h] | half-life [3, 7] [h] | other results
1 | COC1(C(=O)O)COc2cc(O[C@@H]3O[C@H](CO)[C@@H](O)[C@H](O)[C@H]3O)ccc2-c2cc(O)c(O)cc2C1 (stereo partly shown) [M4] | Desaturation, Oxidation, Methylation | – | – | – | – | – | – | – | – | – | – | – | – | – | – | – | – | –
2 | COc1ccc2c(c1)OC(CO)=Cc1cc(O)c(O)cc1-2 [M2] | Dealkylation, Dehydration | – | – | – | – | – | – | – | – | – | – | – | – | – | – | – | – | –
3 | COC1=CC=C(c2cc(O)c(O)cc2C#CC=O)C(=O)C1 [M3] | Dealkylation, Dehydration, Desaturation | – | – | – | – | – | – | – | – | – | – | – | – | – | – | – | – | –
4 | OCC1OC(Oc2ccc3c(c2)OCC(O)(CO)Cc2cc(O)c(O)cc2-3)C(O)C(O)C1O [PTD, protosappanin B-3-O-β-D-glucoside] | – | below 200 μmol/L | downregulate; also recorded: significantly reduced; also recorded: significantly downregulated | downregulate; also recorded: significantly reduced; also recorded: significantly downregulated | downregulate; also recorded: significantly reduced; also recorded: significantly downregulated | 405 ± 224 | 382 ± 211 | 250 ± 176 | 3.06 ± 0.63 | 4.15 ± 1.09 | 3.47 ± 0.78 | ~0.49 | 19700 | 19400 | 1.8 ± 0.5 | 2.4 ± 0.83 | 3.65 ± 1.26 | bioavailability ([3]; rat, plasma, oral, 27.3 mg/kg, rat, oral 27.3 mg/kg vs intravenous 9.1 mg/kg): 0.65%; Measured Concentration (Mean ± SD) ([4]; 4 °C for 24 h, nominal 5.01 ng/mL): 4.96 ± 0.65 ng/mL; Measured Concentration (Mean ± SD) ([4]; 4 °C for 24 h, nominal 250.5 ng/mL): 236.32 ± 13.98 ng/mL; Measured Concentration (Mean ± SD) ([4]; 4 °C for 24 h, nominal 15,030 ng/mL): 15,122.74 ± 959.18 ng/mL; Measured Concentration (Mean ± SD) ([4]; Room temperature for 24 h, nominal 5.01 ng/mL): 5.61 ± 0.32 ng/mL; Measured Concentration (Mean ± SD) ([4]; Room temperature for 24 h, nominal 250.5 ng/mL): 241.97 ± 8.73 ng/mL; Measured Concentration (Mean ± SD) ([4]; Room temperature for 24 h, nominal 15,030 ng/mL): 15,135.44 ± 1324.59 ng/mL; Measured Concentration (Mean ± SD) ([4]; three freeze-thaw cycles, nominal 5.01 ng/mL): 5.23 ± 0.58 ng/mL; Measured Concentration (Mean ± SD) ([4]; three freeze-thaw cycles, nominal 250.5 ng/mL): 260.48 ± 17.36 ng/mL; Measured Concentration (Mean ± SD) ([4]; three freeze-thaw cycles, nominal 15,030 ng/mL): 14,844.73 ± 346.61 ng/mL
5 | OCC1(O)COc2cc(O)ccc2-c2cc(O)c(O)cc2C1 (stereo not shown) [PTB, protosappanin B, reference compound] | desugarization | below 300 μmol/L | significantly reduced; also recorded: significantly downregulated | significantly reduced; also recorded: significantly downregulated | significantly reduced; also recorded: significantly downregulated | 204 ± 43.9 | 179 ± 45 | 31.1 ± 10.5 | 7.41 ± 0.77 | 11.1 ± 2.32 | 7.79 ± 1.59 | 1.42 ± 0.49 | 230 ± 71.9 | 202 ± 59.5 | 6.45 ± 2.15 | 10.5 ± 3.88 | 6.78 ± 2.69 | Measured Concentration (Mean ± SD) ([4]; 4 °C for 24 h, nominal 2.51 ng/mL): 2.32 ± 0.11 ng/mL; Measured Concentration (Mean ± SD) ([4]; 4 °C for 24 h, nominal 20.08 ng/mL): 24.62 ± 1.12 ng/mL; Measured Concentration (Mean ± SD) ([4]; 4 °C for 24 h, nominal 251 ng/mL): 223.94 ± 15.73 ng/mL; Measured Concentration (Mean ± SD) ([4]; Room temperature for 24 h, nominal 2.51 ng/mL): 2.17 ± 0.13 ng/mL; Measured Concentration (Mean ± SD) ([4]; Room temperature for 24 h, nominal 20.08 ng/mL): 21.81 ± 1.46 ng/mL; Measured Concentration (Mean ± SD) ([4]; Room temperature for 24 h, nominal 251 ng/mL): 244.31 ± 8.62 ng/mL; Measured Concentration (Mean ± SD) ([4]; three freeze-thaw cycles, nominal 2.51 ng/mL): 2.68 ± 0.03 ng/mL; Measured Concentration (Mean ± SD) ([4]; three freeze-thaw cycles, nominal 20.08 ng/mL): 19.43 ± 1.08 ng/mL; Measured Concentration (Mean ± SD) ([4]; three freeze-thaw cycles, nominal 251 ng/mL): 259.84 ± 23.13 ng/mL
